{
  "source": "patent EP4755888A1",
  "about": "(ILAb Co., Ltd., priority 2023, dated 2025)",
  "note": "pIC50: −log10 of the molar value.",
  "data": [
    {"target": "PD-1/PD-L1 (Homo sapiens, UniProt Q9NZQ7)", "sequence (Q9NZQ7 19-238 limits assumed)": "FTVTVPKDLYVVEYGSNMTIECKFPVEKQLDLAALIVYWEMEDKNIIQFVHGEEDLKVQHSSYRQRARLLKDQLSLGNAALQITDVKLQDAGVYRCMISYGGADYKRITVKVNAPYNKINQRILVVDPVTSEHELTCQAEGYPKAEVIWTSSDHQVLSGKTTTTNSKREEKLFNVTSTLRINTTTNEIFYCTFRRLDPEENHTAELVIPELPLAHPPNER", "assay": "TR-FRET PD-1/PD-L1 binding inhibition at the molecular level (free proteins)", "settings": "Tag1-PD-L1 and Tag2-PD-1 proteins, twelve concentrations from 200 nM, 2 hours at room temperature, read-out: FRET assay (IC50)", "how_it_was_run": "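HTRF read-out at 665/620 nm after 2 h at room temperature. Detection used anti-Tag1 Eu cryptate plus anti-Tag2 XL665 antibodies. Tagged PD-L1 and PD-1 proteins were pre-mixed with compound across twelve […] 1:2 dilutions starting at 200 nM.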", "values": [
      {"smiles": "Cc1c(Nc2nccc3cc(CN4CC[C@@H](O)C4)cnc23)cccc1-c1cccc(NC(=O)c2cc3n(n2)CCCC3NC[C@@H]2CCC(=O)N2)c1Cl", "note": "(stereo partly drawn) [Compound 31, N-(2-chloro-3'-((3-(((R)-3-hydroxypyrrolidin-1-yl)methyl)-1,7-naphthyridin-8-yl)amino)-2'-methyl-[1,1'-biphenyl]-3-yl)-4-((((S)-5-oxopyrrolidin-2-yl)methyl)amino)-4,5,6,7-tetrahydropyrazolo[1,5-a]pyridine-2-carboxamide]", "pIC50": "> 8.00"},
      {"smiles": "Cc1c(Nc2nccc3cc(CN4CC[C@@H](O)C4)cnc23)cccc1-c1cccc(NC(=O)c2cc3n(n2)CCCC3NCC(=O)O)c1Cl", "note": "(stereo partly drawn) [Compound 32, 2-((2-((2-chloro-3'-((3-(((R)-3-hydroxypyrrolidin-1-yl)methyl)-1,7-naphthyridin-8-yl)amino)-2'-methyl-[1,1'-biphenyl]-3-yl)carbamoyl)-4,5,6,7-tetrahydropyrazolo[1,5-a]pyridin-4-yl)amino)acetic acid]", "pIC50": "> 8.00"},
      {"smiles": "Cc1c(Nc2nccc3cc(CN4CC[C@@H](O)C4)cnc23)cccc1-c1cccc(NC(=O)c2cc3n(n2)CCCC3N2CC[C@@H](C(=O)O)C2)c1Cl", "note": "(stereo partly drawn) [Compound 33, (3R)-1-(2-((2-chloro-3'-((3-(((R)-3-hydroxypyrrolidin-1-yl)methyl)-1,7-naphthyridin-8-yl)amino)-2'-methyl-[1,1'-biphenyl]-3-yl)carbamoyl)-4,5,6,7-tetrahydropyrazolo[1,5-a]pyridin-4-yl)pyrrolidine-3-carboxylic acid]", "pIC50": "> 8.00"},
      {"smiles": "Cc1c(Nc2nccc3cc(CN4CC[C@@H](O)C4)cnc23)cccc1-c1cccc(NC(=O)c2cc3n(n2)CCCC3N2CCC(O)CC2)c1Cl", "note": "(stereo partly drawn) [Compound 34, N-(2-chloro-3'-((3-(((R)-3-hydroxypyrrolidin-1-yl)methyl)-1,7-naphthyridin-8-yl)amino)-2'-methyl-[1,1'-biphenyl]-3-yl)-4-(4-hydroxypiperidin-1-yl)-4,5,6,7-tetrahydropyrazolo[1,5-a]pyridine-2-carboxamide]", "pIC50": "7.00 to 8.00"},
      {"smiles": "Cc1c(Nc2nccc3cc(CN4CC[C@@H](O)C4)cnc23)cccc1-c1cccc(NC(=O)c2cc3n(n2)CCCC3N2CCC(C(=O)O)CC2)c1Cl", "note": "(stereo partly drawn) [Compound 35, 1-(2-((2-chloro-3'-((3-(((R)-3-hydroxypyrrolidin-1-yl)methyl)-1,7-naphthyridin-8-yl)amino)-2'-methyl-[1,1'-biphenyl]-3-yl)carbamoyl)-4,5,6,7-tetrahydropyrazolo[1,5-a]pyridin-4-yl)piperidine-4-carboxylic acid]", "pIC50": "> 8.00"},
      {"smiles": "Cc1c(Nc2nccc3cc(CN4CC[C@@H](O)C4)cnc23)cccc1-c1cccc(NC(=O)c2cc3n(n2)CCCC3O)c1Cl", "note": "(stereo partly drawn) [Compound 36, N-(2-chloro-3'-((3-(((R)-3-hydroxypyrrolidin-1-yl)methyl)-1,7-naphthyridin-8-yl)amino)-2'-methyl-[1,1'-biphenyl]-3-yl)-4-hydroxy-4,5,6,7-tetrahydropyrazolo[1,5-a]pyridine-2-carboxamide]", "pIC50": "7.00 to 8.00"},
      {"smiles": "Cc1c(NC(=O)c2cc3n(n2)CCCC3NCCO)cccc1-c1cccc(Nc2nccc3cc(CN4CC[C@@H](O)C4)cnc23)c1Cl", "note": "(stereo partly drawn) [Compound 37, N-(2'-chloro-3'-((3-(((R)-3-hydroxypyrrolidin-1-yl)methyl)-1,7-naphthyridin-8-yl)amino)-2-methyl-[1,1'-biphenyl]-3-yl)-4-((2-hydroxyethyl)amino)-4,5,6,7-tetrahydropyrazolo[1,5-a]pyridine-2-carboxamide]", "pIC50": "> 8.00"},
      {"smiles": "Cc1c(NC(=O)c2cc3n(n2)CCCC3N2CC[C@@H](O)C2)cccc1-c1cccc(Nc2nccc3cc(CN4CC[C@@H](O)C4)cnc23)c1Cl", "note": "(stereo partly drawn) [Compound 38, N-(2'-chloro-3'-((3-(((R)-3-hydroxypyrrolidin-1-yl)methyl)-1,7-naphthyridin-8-yl)amino)-2-methyl-[1,1'-biphenyl]-3-yl)-4-((R)-3-hydroxypyrrolidin-1-yl)-4,5,6,7-tetrahydropyrazolo[1,5-a]pyridine-2-carboxamide]", "pIC50": "7.00 to 8.00"},
      {"smiles": "CC(=O)NCCNC1CCCn2nc(C(=O)Nc3cccc(-c4cccc(Nc5nccc6cc(CN7CC[C@@H](O)C7)cnc56)c4Cl)c3C)cc21", "note": "(stereo partly drawn) [Compound 39, 4-((2-acetamidoethyl)amino)-N-(2'-chloro-3'-((3-(((R)-3-hydroxypyrrolidin-1-yl)methyl)-1,7-naphthyridin-8-yl)amino)-2-methyl-[1,1'-biphenyl]-3-yl)-4,5,6,7-tetrahydropyrazolo[1,5-a]pyridine-2-carboxamide]", "pIC50": "> 8.00"},
      {"smiles": "Cc1c(NC(=O)c2cc3n(n2)CCCC3NC[C@@H]2CCC(=O)N2)cccc1-c1cccc(Nc2nccc3cc(CN4CC[C@@H](O)C4)cnc23)c1Cl", "note": "(stereo partly drawn) [Compound 40, N-(2'-chloro-3'-((3-(((R)-3-hydroxypyrrolidin-1-yl)methyl)-1,7-naphthyridin-8-yl)amino)-2-methyl-[1,1'-biphenyl]-3-yl)-4-((((S)-5-oxopyrrolidin-2-yl)methyl)amino)-4,5,6,7-tetrahydropyrazolo[1,5-a]pyridine-2-carboxamide]", "pIC50": "7.00 to 8.00"},
      {"smiles": "Cc1c(NC(=O)c2cc3n(n2)CCCC3NCC(=O)O)cccc1-c1cccc(Nc2nccc3cc(CN4CC[C@@H](O)C4)cnc23)c1Cl", "note": "(stereo partly drawn) [Compound 41, 2-((2-((2'-chloro-3'-((3-(((R)-3-hydroxypyrrolidin-1-yl)methyl)-1,7-naphthyridin-8-yl)amino)-2-methyl-[1,1'-biphenyl]-3-yl)carbamoyl)-4,5,6,7-tetrahydropyrazolo[1,5-a]pyridin-4-yl)amino)acetic acid]", "pIC50": "> 8.00"},
      {"smiles": "Cc1c(NC(=O)c2cc3n(n2)CCCC3N2CC[C@@H](C(=O)O)C2)cccc1-c1cccc(Nc2nccc3cc(CN4CC[C@@H](O)C4)cnc23)c1Cl", "note": "(stereo partly drawn) [Compound 42, (3R)-1-(2-((2'-chloro-3'-((3-(((R)-3-hydroxypyrrolidin-1-yl)methyl)-1,7-naphthyridin-8-yl)amino)-2-methyl-[1,1'-biphenyl]-3-yl)carbamoyl)-4,5,6,7-tetrahydropyrazolo[1,5-a]pyridin-4-yl)pyrrolidine-3-carboxylic acid]", "pIC50": "> 8.00"},
      {"smiles": "Cc1c(NC(=O)c2cc3n(n2)CCCC3N2CCC(C(=O)O)CC2)cccc1-c1cccc(Nc2nccc3cc(CN4CC[C@@H](O)C4)cnc23)c1Cl", "note": "(stereo partly drawn) [Compound 44, 1-(2-((2'-chloro-3'-((3-(((R)-3-hydroxypyrrolidin-1-yl)methyl)-1,7-naphthyridin-8-yl)amino)-2-methyl-[1,1'-biphenyl]-3-yl)carbamoyl)-4,5,6,7-tetrahydropyrazolo[1,5-a]pyridin-4-yl)piperidine-4-carboxylic acid]", "pIC50": "7.00 to 8.00"},
      {"smiles": "Cc1c(NC(=O)c2cc3n(n2)CCCC3O)cccc1-c1cccc(NC(=O)c2nc3c(n2C)CCN(CCC24CCC(C(=O)O)(CC2)C4)C3)c1C", "note": "(stereo not shown) [Compound 45, 4-(2-(2-((3'-(4-hydroxy-4,5,6,7-tetrahydropyrazolo[1,5-a]pyridine-2-carboxamido)-2,2'-dimethyl-[1,1'-biphenyl]-3-yl)carbamoyl)-1-methyl-6,7-dihydro-1H-imidazo[4,5-c]pyridin-5(4H)-yl)ethyl)bicyclo[2.2.1]heptane-1-carboxylic acid]", "pIC50": "> 8.00"},
      {"smiles": "CC(=O)NCCNC1CCCn2nc(C(=O)Nc3cccc(-c4cccc(NC(=O)c5nc6c(n5C)CCN(CCC57CCC(C(=O)O)(CC5)C7)C6)c4C)c3C)cc21", "note": "(stereo not shown) [Compound 46, 4-(2-(2-((3'-(4-((2-acetamidoethyl)amino)-4,5,6,7-tetrahydropyrazolo[1,5-a]pyridine-2-carboxamido)-2,2'-dimethyl-[1,1'-biphenyl]-3-yl)carbamoyl)-1-methyl-6,7-dihydro-1H-imidazo[4,5-c]pyridin-5(4H)-yl)ethyl)bicyclo[2.2.1]heptane-1-carboxylic acid]", "pIC50": "> 8.00"},
      {"smiles": "Cc1c(NC(=O)c2cc3n(n2)CCCC3N2CC[C@@H](O)C2)cccc1-c1cccc(NC(=O)c2nc3c(n2C)CCN(CCC24CCC(C(=O)O)(CC2)C4)C3)c1C", "note": "(stereo partly drawn) [Compound 47, 4-(2-(2-((3'-(4-((R)-3-hydroxypyrrolidin-1-yl)-4,5,6,7-tetrahydropyrazolo[1,5-a]pyridine-2-carboxamido)-2,2'-dimethyl-[1,1'-biphenyl]-3-yl)carbamoyl)-1-methyl-6,7-dihydro-1H-imidazo[4,5-c]pyridin-5(4H)-yl)ethyl)bicyclo[2.2.1]heptane-1-carboxylic acid]", "pIC50": "> 8.00"},
      {"smiles": "Cc1c(NC(=O)c2cc3n(n2)CCCC3NCCO)cccc1-c1cccc(NC(=O)c2nc3c(n2C)CCN(CCC24CCC(C(=O)O)(CC2)C4)C3)c1C", "note": "(stereo not shown) [Compound 48, 4-(2-(2-((3'-(4-((2-hydroxyethyl)amino)-4,5,6,7-tetrahydropyrazolo[1,5-a]pyridine-2-carboxamido)-2,2'-dimethyl-[1,1'-biphenyl]-3-yl)carbamoyl)-1-methyl-6,7-dihydro-1H-imidazo[4,5-c]pyridin-5(4H)-yl)ethyl)bicyclo[2.2.1]heptane-1-carboxylic acid]", "pIC50": "> 8.00"},
      {"smiles": "Cc1c(NC(=O)c2cc3n(n2)CCCC3NC[C@@H]2CCC(=O)N2)cccc1-c1cccc(NC(=O)c2nc3c(n2C)CCN(CCC24CCC(C(=O)O)(CC2)C4)C3)c1C", "note": "(stereo partly drawn) [Compound 49, 4-(2-(2-((2,2'-dimethyl-3'-(4-((((S)-5-oxopyrrolidin-2-yl)methyl)amino)-4,5,6,7-tetrahydropyrazolo[1,5-a]pyridine-2-carboxamido)-[1,1'-biphenyl]-3-yl)carbamoyl)-1-methyl-6,7-dihydro-1H-imidazo[4,5-c]pyridin-5(4H)-yl)ethyl)bicyclo[2.2.1]heptane-1-carboxylic acid]", "pIC50": "> 8.00"},
      {"smiles": "Cc1c(NC(=O)c2cc3n(n2)CCCC3NCC(=O)O)cccc1-c1cccc(NC(=O)c2nc3c(n2C)CCN(CCC24CCC(C(=O)O)(CC2)C4)C3)c1C", "note": "(stereo not shown) [Compound 50, 4-(2-(2-((3'-(4-((carboxymethyl)amino)-4,5,6,7-tetrahydropyrazolo[1,5-a]pyridine-2-carboxamido)-2,2'-dimethyl-[1,1'-biphenyl]-3-yl)carbamoyl)-1-methyl-6,7-dihydro-1H-imidazo[4,5-c]pyridin-5(4H)-yl)ethyl)bicyclo[2.2.1]heptane-1-carboxylic acid]", "pIC50": "> 8.00"}
    ]}
  ]
}
